Target: Recombinant human liver glucokinase (FLAG fusion protein) (Homo sapiens (Human), UniProt P35557)
Assay: glucokinase (GK) activation assay, Thio-NADH formation coupled to G6PDH, absorbance at 405 nm
Type: biochemical
Conditions: 2.5 mM Glu; for EC50: 30° C.; for Emax: OD value of DMSO control regarded as 100%, read-out: Emax
Source text: The glucokinase activity can, for instance, be determined without directly measuring glucose-6-phosphate by measuring the amount of Thio-NADH generated during the production of phosphogluconolactone from glucose-6-phosphate by a reporter enzyme glucose-6-phosphate dehydrogenase.
To test the exemplified compounds, the following assay was employed. Recombinant human liver glucokinase was expressed as a FLAG fusion protein in E. coli, and purified on ANTIFLAG M2 AFFINITY GEL (Sigma). The assay was carried out at 30° C. in a 96-well plate. In the plate was distributed 69 μl each of assay buffer (25 mM Hepes Buffer: pH=7.2, 2 mM MgCl2, 1 mM ATP, 0.5 mM TNAD, 1 mM dithiothreitol), to which was added 1 μl of a DMSO solution of the compound or DMSO as control. Then, 20 μl of pre-ice-cooled enzyme mixture (FLAG-GK, 20 U/ml G6PDH) was distributed thereto, to which was added 10 μl of 25 mM glucose as substrate to initiate the reaction (final glucose concentration=2.5 mM). After starting the reaction, the absorbance at 405 nm was measured every 30 seconds for 10 minutes to evaluate the compound based on the initial increase for 5 minutes. FLAG-GK was added so that the increase of absorbance after 5 minutes fell between 0.05 to 0.1 in the presence of 1% DMSO.
The OD values of the respective compounds were measured in the respective concentrations, wherein the OD value of DMSO as control is regarded as 100%. From the OD values at the respective concentrations, Emax (%, 2.5 mM Glu) and EC50 (nM, 2.5 mM Glu) were calculated and used as indicators of the GK activation capability of the compounds. According to the above assay, the GK activation capability of the exemplified compounds of the present invention was determined. […] Where different enantiomers of the same compound were tested, two numbers are provided. Where 3 numbers are provided, for example, Ex. #30, data for the racemic form is also shown.

Chain of Recombinant human liver glucokinase (FLAG fusion protein) (P35557 other isoform, or with tags, fused parts or gaps): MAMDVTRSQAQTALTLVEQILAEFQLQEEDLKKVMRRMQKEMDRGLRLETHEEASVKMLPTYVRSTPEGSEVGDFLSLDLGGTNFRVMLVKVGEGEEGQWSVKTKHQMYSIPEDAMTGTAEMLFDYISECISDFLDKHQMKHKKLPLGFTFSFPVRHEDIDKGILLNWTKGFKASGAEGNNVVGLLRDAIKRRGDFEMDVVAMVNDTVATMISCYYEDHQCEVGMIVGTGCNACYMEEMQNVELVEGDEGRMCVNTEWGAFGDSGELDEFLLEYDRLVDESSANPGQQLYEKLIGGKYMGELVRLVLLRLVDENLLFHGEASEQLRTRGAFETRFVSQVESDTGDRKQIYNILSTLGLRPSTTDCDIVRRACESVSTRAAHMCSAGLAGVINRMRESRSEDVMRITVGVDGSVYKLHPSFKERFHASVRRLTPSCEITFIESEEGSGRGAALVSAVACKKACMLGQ

Row | EC50 [nM] | Emax [%] | Structure (SMILES)
1 | 8.9 | 656 | COC(=O)CCc1cnc(-c2cc3cc(Oc4ccc(S(C)(=O)=O)cc4)c(C4CCC(=O)N4C)cc3[nH]2)s1 (stereo not drawn) [Example 35, methyl 3-(2-(6-(1-methyl-5-oxopyrrolidin-2-yl)-5-(4-(methylsulfonyl)phenoxy)-1H-indol-2-yl)thiazol-5-yl)propanoate]
2 | 66.7 | 619 | CN1C(=O)CCC1c1cc2[nH]c(-c3ncc(CCC(=O)O)s3)cc2cc1Oc1ccc(S(C)(=O)=O)cc1 (stereo not drawn) [Example 36, 3-(2-(6-(1-methyl-5-oxopyrrolidin-2-yl)-5-(4-(methylsulfonyl)phenoxy)-1H-indol-2-yl)thiazol-5-yl)propanoic acid]

Row | Structure (SMILES) | EC50 [nM] | Emax [%]
3 | CCOP(=O)(Cc1cnc(-c2cc3cc(Oc4ccc(S(C)(=O)=O)nc4)c(C4CCC(=O)N4C)cc3[nH]2)s1)OCC (stereo not drawn) [Example 37, diethyl((2-(6-(1-methyl-5-oxopyrrolidin-2-yl)-5-((6-(methylsulfonyl)pyridin-3-yl)oxy)-1H-indol-2-yl)thiazol-5-yl)methyl)phosphonate] | 23.5 | 696
